Measurements taken from patent US8222267B2 (priority 2009, dated 2012).

Legend:
[1] = Pharmacokinetics after single oral co-administered dose of morphine and oxycodone (about 3:2) in healthy subjects; conditions: for AUC0-∞ (dose adjusted) / Cmax: healthy subjects, n = 18
Experimental: Values for the observed maximum plasma concentration (Cmax), total area under the plasma concentration-time curve (AUC0-∞) and the time to maximum plasma concentration (Tmax) were determined.

[2] = Open-label pilot study, adverse events / safety of MOXDUO, PERCOCET and preceding IV PCA morphine

SMILES | AUC0-∞ (dose adjusted) ([1]; single oral co-administered dose morphine/oxycodone 3 mg/2 mg) | AUC0-∞ (dose adjusted) ([1]; single oral co-administered dose morphine/oxycodone 12 mg/8 mg) | Tmax ([1]; human, plasma, po) | Cmax ([1]; human, plasma, po, single oral co-administered dose morphine/oxycodone 3 mg/2 mg) | Cmax ([1]; human, plasma, po, single oral co-administered dose morphine/oxycodone 12 mg/8 mg) | Dose proportionality of plasma levels ([1]; single-dose combination, 3 mg/2 mg to 12 mg/8 mg dose range, dose-normalized Cmax and AUC0-∞ within 80-125% limits) | Overall incidence of nausea, pruritus, constipation, and dizziness ([2]; during IV PCA morphine use vs same time period after first dose of study medication) | Subjects with moderate or severe nausea ([2]; while on IV PCA morphine, before study medication)
COc1ccc2c3c1O[C@H]1C(=O)CC[C@@]4(O)[C@@H](C2)N(C)CC[C@]314 [Oxycodone, oxycodone] | 9.62 ng·h/mL/mg | 9.62 ng·h/mL/mg | 1 h | 4.9 ng/mL | 17.8 ng/mL | increase linearly in a dose-proportionate manner |  | 
CN1CC[C@]23c4c5ccc(O)c4O[C@H]2[C@@H](O)C=C[C@H]3[C@H]1C5 [Morphine, morphine] |  |  |  |  |  |  | higher | 25%
